From publication PMC3961306, “Comparison of the Cancer Gene Targeting and Biochemical Selectivities of All Targeted Kinase Inhibitors Approved for Clinical Use” (PLoS ONE, 2014)
Read-outs that look alike come from different tables or passages of the source.

How the values were obtained:
Assay in all cases: Kinase profiling in a biochemical assay panel (mobility shift assays and ELISA), %-inhibition at 1 μM; selectivity entropy
[1] = target: panel of more than 300 wild-type and mutant kinases (313 kinase panel) (Homo sapiens, UniProt P08581)
[2] = tested on: panel of more than 300 wild-type and mutant kinases (313 kinase panel)
[3] = target: T1, panel of more than 300 wild-type and mutant kinases (313 kinase panel) (Homo sapiens, UniProt Q13163); conditions: kinase MAP2K5; compound at 1 μM
T1 sequence (Q13163 1-448): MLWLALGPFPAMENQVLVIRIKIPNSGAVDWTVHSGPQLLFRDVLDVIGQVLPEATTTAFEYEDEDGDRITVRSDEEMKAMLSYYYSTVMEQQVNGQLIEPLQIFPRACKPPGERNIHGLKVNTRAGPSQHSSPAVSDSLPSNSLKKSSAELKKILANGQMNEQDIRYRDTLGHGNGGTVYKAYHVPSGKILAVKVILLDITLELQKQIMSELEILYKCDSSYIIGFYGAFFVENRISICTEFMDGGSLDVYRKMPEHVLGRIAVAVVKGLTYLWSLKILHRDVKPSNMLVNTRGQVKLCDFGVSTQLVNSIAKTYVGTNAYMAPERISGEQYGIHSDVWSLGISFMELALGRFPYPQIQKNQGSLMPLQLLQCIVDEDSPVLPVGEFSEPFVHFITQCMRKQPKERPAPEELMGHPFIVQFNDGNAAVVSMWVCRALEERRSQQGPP

[4] = target: panel of more than 300 wild-type and mutant kinases (313 kinase panel) (Homo sapiens, UniProt Q9H4A3); conditions: kinase WNK1; compound at 1 μM
Sequence of panel of more than 300 wild-type and mutant kinases (313 kinase panel) (Homo sapiens, UniProt Q9H4A3) (Q9H4A3 whole entry, change not shown): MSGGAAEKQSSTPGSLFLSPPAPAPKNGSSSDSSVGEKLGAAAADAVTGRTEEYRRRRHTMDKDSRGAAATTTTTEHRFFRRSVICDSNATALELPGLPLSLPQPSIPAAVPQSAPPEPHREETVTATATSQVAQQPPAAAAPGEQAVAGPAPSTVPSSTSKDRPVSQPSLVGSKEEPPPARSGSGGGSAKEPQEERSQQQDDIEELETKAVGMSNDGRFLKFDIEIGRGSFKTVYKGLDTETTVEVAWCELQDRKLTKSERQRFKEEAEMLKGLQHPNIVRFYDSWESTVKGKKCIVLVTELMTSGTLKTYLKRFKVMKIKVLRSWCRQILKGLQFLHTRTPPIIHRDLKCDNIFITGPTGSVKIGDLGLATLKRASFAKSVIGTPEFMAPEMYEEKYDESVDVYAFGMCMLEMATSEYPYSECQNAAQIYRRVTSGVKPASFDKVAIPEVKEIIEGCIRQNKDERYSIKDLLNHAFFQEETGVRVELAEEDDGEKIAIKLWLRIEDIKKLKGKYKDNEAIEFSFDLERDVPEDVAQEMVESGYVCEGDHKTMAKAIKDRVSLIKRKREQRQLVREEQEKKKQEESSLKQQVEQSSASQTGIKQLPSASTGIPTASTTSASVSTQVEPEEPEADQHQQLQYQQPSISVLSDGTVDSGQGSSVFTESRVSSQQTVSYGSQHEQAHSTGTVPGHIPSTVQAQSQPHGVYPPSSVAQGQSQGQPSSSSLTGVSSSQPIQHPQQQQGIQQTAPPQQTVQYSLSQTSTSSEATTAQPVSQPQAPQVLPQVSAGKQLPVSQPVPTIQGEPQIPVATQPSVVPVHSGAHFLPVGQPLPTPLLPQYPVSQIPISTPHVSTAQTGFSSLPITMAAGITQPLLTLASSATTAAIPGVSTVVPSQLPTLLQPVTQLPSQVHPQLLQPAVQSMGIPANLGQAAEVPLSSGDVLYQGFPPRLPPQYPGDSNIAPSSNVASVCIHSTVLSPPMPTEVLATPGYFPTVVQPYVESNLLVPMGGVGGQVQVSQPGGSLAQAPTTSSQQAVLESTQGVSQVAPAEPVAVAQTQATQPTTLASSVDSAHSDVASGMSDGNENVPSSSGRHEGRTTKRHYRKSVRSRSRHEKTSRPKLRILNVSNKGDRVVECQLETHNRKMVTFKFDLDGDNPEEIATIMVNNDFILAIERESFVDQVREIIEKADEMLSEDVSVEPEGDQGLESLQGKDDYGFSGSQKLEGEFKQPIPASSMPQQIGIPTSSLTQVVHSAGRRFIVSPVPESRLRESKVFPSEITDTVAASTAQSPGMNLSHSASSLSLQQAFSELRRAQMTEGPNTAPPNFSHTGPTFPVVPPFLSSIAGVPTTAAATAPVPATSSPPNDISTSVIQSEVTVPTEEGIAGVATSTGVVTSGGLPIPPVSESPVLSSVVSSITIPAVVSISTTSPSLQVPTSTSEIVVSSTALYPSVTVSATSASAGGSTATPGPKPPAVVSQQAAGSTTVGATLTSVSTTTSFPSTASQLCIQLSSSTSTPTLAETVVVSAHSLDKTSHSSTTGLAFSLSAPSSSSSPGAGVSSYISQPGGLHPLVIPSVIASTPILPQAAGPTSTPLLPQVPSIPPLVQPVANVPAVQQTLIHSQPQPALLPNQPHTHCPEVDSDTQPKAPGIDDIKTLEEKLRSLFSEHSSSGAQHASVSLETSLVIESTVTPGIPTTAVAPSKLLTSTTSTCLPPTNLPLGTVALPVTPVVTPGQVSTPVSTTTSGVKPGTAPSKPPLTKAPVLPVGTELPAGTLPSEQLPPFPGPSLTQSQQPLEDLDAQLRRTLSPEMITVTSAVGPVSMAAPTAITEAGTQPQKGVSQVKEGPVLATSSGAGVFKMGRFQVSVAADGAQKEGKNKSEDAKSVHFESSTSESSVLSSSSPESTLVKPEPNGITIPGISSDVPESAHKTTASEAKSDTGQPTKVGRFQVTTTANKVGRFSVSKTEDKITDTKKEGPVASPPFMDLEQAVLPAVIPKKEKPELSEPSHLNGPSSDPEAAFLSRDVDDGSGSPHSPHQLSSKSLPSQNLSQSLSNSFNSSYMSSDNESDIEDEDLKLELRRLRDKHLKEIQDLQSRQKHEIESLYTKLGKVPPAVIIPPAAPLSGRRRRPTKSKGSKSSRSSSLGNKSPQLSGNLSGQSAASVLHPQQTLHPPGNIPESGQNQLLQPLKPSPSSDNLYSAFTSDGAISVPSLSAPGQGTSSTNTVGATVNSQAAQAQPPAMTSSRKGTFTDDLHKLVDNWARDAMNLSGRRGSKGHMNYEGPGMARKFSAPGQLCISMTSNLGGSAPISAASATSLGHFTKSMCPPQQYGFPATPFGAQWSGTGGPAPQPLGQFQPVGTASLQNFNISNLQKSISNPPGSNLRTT

[5] = target: panel of more than 300 wild-type and mutant kinases (313 kinase panel) (Homo sapiens, UniProt P53350); conditions: kinase PLK1; 1 μM
[6] = target: T2, panel of more than 300 wild-type and mutant kinases (313 kinase panel) (Homo sapiens, UniProt O14965); conditions: 1 μM compound; for %-inhibition, AurA/TPX2: kinase AurA/TPX2; for %-inhibition, AurA: kinase AurA
T2 sequence (O14965 1-403): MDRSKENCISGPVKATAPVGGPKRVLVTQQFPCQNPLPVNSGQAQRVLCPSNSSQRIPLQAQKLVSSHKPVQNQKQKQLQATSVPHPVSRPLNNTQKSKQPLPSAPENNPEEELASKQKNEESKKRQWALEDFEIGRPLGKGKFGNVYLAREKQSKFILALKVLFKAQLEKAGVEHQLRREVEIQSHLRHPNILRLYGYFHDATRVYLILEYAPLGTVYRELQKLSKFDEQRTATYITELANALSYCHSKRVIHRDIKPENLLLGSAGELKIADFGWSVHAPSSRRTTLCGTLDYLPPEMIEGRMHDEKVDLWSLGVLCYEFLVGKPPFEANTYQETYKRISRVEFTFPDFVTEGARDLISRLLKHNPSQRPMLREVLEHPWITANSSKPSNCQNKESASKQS

[7] = target: panel of more than 300 wild-type and mutant kinases (313 kinase panel) (Homo sapiens, UniProt P22694)
[8] = target: panel of more than 300 wild-type and mutant kinases (313 kinase panel) (Homo sapiens, UniProt Q9UM73)
[9] = target: panel of more than 300 wild-type and mutant kinases (313 kinase panel) (Homo sapiens, UniProt P51812); conditions: kinase RSK2; 1 μM
[10] = target: panel of more than 300 wild-type and mutant kinases (313 kinase panel) (Homo sapiens, UniProt O75676)
[11] = target: T3, panel of more than 300 wild-type and mutant kinases (313 kinase panel) (Homo sapiens, UniProt Q8IW41)
T3 sequence (Q8IW41 1-473): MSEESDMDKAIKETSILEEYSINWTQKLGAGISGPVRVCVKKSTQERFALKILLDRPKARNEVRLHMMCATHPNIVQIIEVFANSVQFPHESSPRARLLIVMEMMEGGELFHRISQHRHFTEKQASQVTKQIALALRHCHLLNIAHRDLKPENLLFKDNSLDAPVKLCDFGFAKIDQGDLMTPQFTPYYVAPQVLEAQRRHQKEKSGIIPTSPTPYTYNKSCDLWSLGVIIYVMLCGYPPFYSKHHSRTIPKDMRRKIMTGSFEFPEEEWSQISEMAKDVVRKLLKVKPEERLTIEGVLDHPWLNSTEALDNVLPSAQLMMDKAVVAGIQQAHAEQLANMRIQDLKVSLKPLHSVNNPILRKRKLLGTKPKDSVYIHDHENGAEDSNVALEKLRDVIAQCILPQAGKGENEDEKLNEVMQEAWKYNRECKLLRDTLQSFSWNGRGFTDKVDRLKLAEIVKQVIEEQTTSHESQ

[12] = kinase EGFR(d746-750), compound at 1 μM
[13] = kinase EGFR(d746-750/T790M), compound at 1 μM
[14] = kinase EML4-ALK, compound at 1 μM
[15] = kinase MAPKAPK5, compound at 1 μM

Row | SMILES | %-inhibition of MET ([1]; kinase MET, compound at 1 μM) | %-inhibition of EGFR(d746-750) [2, 12] | %-inhibition of EGFR(d746-750/T790M) [2, 13] | %-inhibition of EML4-ALK [2, 14] | %-inhibition of LYNb ([2]; kinase LYNb, compound at 1 μM) | %-inhibition of NPM1-ALK ([2]; kinase NPM1-ALK, 1 μM) | %-inhibition of PKCβ2 ([2]; kinase PKCβ2, 1 μM) | %-inhibition of SRM ([2]; kinase SRM, 1 μM) | %-inhibition of TAK1-TAB1 ([2]; kinase TAK1-TAB1, 1 μM) | %-inhibition of MAP2K5 [3] | %-inhibition of WNK1 [4] | %-inhibition of PLK1 [5] | %-inhibition, AurA/TPX2 [6] | %-inhibition of PKACβ ([7]; kinase PKACβ, 1 μM) | %-inhibition, ALK ([8]; kinase ALK, 1 μM compound) | %-inhibition of RSK2 [9] | %-inhibition, AurA [6] | %-inhibition of MSK2 ([10]; kinase MSK2, 1 μM) | %-inhibition of MAPKAPK5 [11, 15] | other results
1 | CC(C)(C)c1nc(-c2cccc(NS(=O)(=O)c3c(F)cccc3F)c2F)c(-c2ccnc(N)n2)s1 [dabrafenib] | 27% | -1.84% | 6.41% | -1.11% | 86% | -3% | -3% | 100% | 14% | 70% | 1.14% | -9% |  |  |  |  |  |  |  | 
2 | Cc1nc(Nc2ncc(C(=O)Nc3c(C)cccc3Cl)s2)cc(N2CCN(CCO)CC2)n1 [dasatinib] |  |  |  |  |  |  |  |  |  |  |  |  | 22% | -1.68% |  |  |  |  |  | 
3 | CO[C@H]1C[C@@H]2CC[C@@H](C)[C@@](O)(O2)C(=O)C(=O)N2CCCC[C@H]2C(=O)O[C@H]([C@H](C)C[C@@H]2CC[C@@H](OCCO)[C@H](OC)C2)CC(=O)[C@H](C)/C=C(\C)[C@@H](O)[C@@H](OC)C(=O)[C@H](C)C[C@H](C)/C=C/C=C/C=C/1C [everolimus] | -4% | -4% | -5% | -3.62% | -1.66% | -5.62% | -9% | 0.151% | 1.54% | 1.34% | -5% | 0.059% | -4.51% | -6% | 1.68% | -1.35% | 3.74% | -7% | -9% | 
4 | N#CC[C@H](C1CCCC1)n1cc(-c2ncnc3[nH]ccc23)cn1 [ruxolitinib] |  |  |  |  |  |  |  |  |  | 7% | -4% | 25% | 63% |  |  | 9% |  |  |  | %-inhibition of MET ([1]; 1 µM): -3.54%; %-inhibition, ALK ([8]; 1 µM): 69%; %-inhibition of NPM1-ALK [2]: 65%; %-inhibition of TAK1-TAB1 [2]: 6%; %-inhibition of EGFR(d746-750) ([2]; 1 µM): -1.14%; %-inhibition of EGFR(d746-750/T790M) ([2]; 1 µM): 1.32%; %-inhibition of EML4-ALK ([2]; 1 µM): 64%; %-inhibition of LYNb ([2]; 1 µM): 8%; %-inhibition of PKCβ2 ([2]; 1 µM): 5%; %-inhibition of SRM ([2]; 1 µM): 4.69%; %-inhibition of PKACβ ([7]; 1 µM): 39%; %-inhibition of MSK2 ([10]; 1 µM): 4.62%; %-inhibition of MAPKAPK5 ([11]; 1 µM): -4.52%
5 | CCN(CC)CCNC(=O)c1c(C)[nH]c(/C=C2\C(=O)Nc3ccc(F)cc32)c1C [sunitinib] |  |  |  |  |  |  |  |  |  |  |  |  | 72% |  |  |  | 81% |  |  | 
6 | CO[C@H]1C[C@@H]2CC[C@@H](C)[C@@](O)(O2)C(=O)C(=O)N2CCCC[C@H]2C(=O)O[C@H]([C@H](C)C[C@@H]2CC[C@@H](OC(=O)C(C)(CO)CO)[C@H](OC)C2)CC(=O)[C@H](C)/C=C(\C)[C@@H](O)[C@@H](OC)C(=O)[C@H](C)C[C@H](C)/C=C/C=C/C=C/1C [temsirolimus] | -4.57% | -3% | -0.33% | -7% | -10% | -7.57% | -1.6% | -4% | -3.77% | -1.51% | -4.27% | -0.295% | -3.42% | -6% | -2% | -2.74% | -12% | -5% | -9% | 
7 | CC(=O)Nc1cccc(-n2c(=O)n(C3CC3)c(=O)c3c(Nc4ccc(I)cc4F)n(C)c(=O)c(C)c32)c1 [trametinib] | -2.41% | -2.58% | 1.72% | -2.51% | -2.58% | -1.79% | -1.58% | -4% | 5.47% | 13% | -1.42% | -9% | -5.37% | -5% | -2.82% | -1.76% | -2% | -4.75% | -2.22% | 
